Data taken from ChEMBL document CHEMBL3817816, “Improvement of the pharmacological properties of amidated kyotorphin by means of iodination” (Medchemcomm, 2016).
One block for each molecule: values may come before it.

Assays:
Spleen [1] = assay: Drug uptake in Sprague-Dawley rat spleen at 11 MBq, ip after 10mins by gamma counting assay; type: ADME, organism-based; conditions: in vivo
[2] = Stability of compound in Sprague-Dawley rat serum assessed as remaining parent compound at 5 mins by RP-HPLC analysis; type: ADME; conditions: read-out: Stability
Intestine [3] = assay: Drug uptake in Sprague-Dawley rat intestine at 11 MBq, ip after 10mins by gamma counting assay; type: ADME, organism-based; conditions: in vivo
Muscle tissue [4] = assay: Drug uptake in Sprague-Dawley rat muscle at 11 MBq, ip after 5 mins by gamma counting assay; type: ADME, organism-based; conditions: in vivo
Kidney [5] = assay: Drug uptake in Sprague-Dawley rat kidney at 11 MBq, ip after 10mins by gamma counting assay; type: ADME, organism-based; conditions: in vivo
Kidney [6] = assay: Drug uptake in Sprague-Dawley rat kidney at 11 MBq, ip after 5 mins by gamma counting assay; type: ADME, organism-based; conditions: in vivo
Liver [7] = assay: Drug uptake in Sprague-Dawley rat liver at 11 MBq, ip after 10mins by gamma counting assay; type: ADME, organism-based; conditions: in vivo
Liver [8] = assay: Stability of compound in Sprague-Dawley rat liver homogenate assessed as remaining parent compound […] at 10 mins by RP-HPLC analysis; type: ADME; conditions: iv
Blood [9] = assay: Drug uptake in Sprague-Dawley rat blood at 11 MBq, ip after 5 mins by gamma counting assay; type: ADME, organism-based; conditions: in vivo
Femur [10] = assay: Drug uptake in Sprague-Dawley rat femur at 11 MBq, ip after 10mins by gamma counting assay; type: ADME, organism-based; conditions: in vivo
Kidney [11] = assay: Stability of compound in Sprague-Dawley rat kidney homogenate assessed as remaining parent compound at 10 mins by RP-HPLC analysis; type: ADME, tissue-based; conditions: tissue homogenate
Muscle tissue [12] = assay: Drug uptake in Sprague-Dawley rat muscle at 11 MBq, ip after 10mins by gamma counting assay; type: ADME, organism-based; conditions: in vivo
Lung [13] = assay: Drug uptake in Sprague-Dawley rat lung at 11 MBq, ip after 10mins by gamma counting assay; type: ADME, organism-based; conditions: in vivo
Thyroid gland [14] = assay: Drug uptake in Sprague-Dawley rat thyroid at 11 MBq, ip after 5 mins by gamma counting assay; type: ADME, organism-based; conditions: in vivo
Liver [15] = assay: Drug uptake in Sprague-Dawley rat liver at 11 MBq, ip after 5 mins by gamma counting assay; type: ADME, organism-based; conditions: in vivo
Brain [16] = assay: Drug uptake in Sprague-Dawley rat brain at 11 MBq, ip after 5 mins by gamma counting assay; type: ADME, organism-based; conditions: in vivo
Heart [17] = assay: Drug uptake in Sprague-Dawley rat heart at 11 MBq, ip after 5 mins by gamma counting assay; type: ADME, organism-based; conditions: in vivo
Spleen [18] = assay: Drug uptake in Sprague-Dawley rat spleen at 11 MBq, ip after 5 mins by gamma counting assay; type: ADME, organism-based; conditions: in vivo
Femur [19] = assay: Drug uptake in Sprague-Dawley rat femur at 11 MBq, ip after 5 mins by gamma counting assay; type: ADME, organism-based; conditions: in vivo
Rattus norvegicus [20] = assay: Analgesic activity in Wistar Han rat assessed as time required to show maximal effect at 44.42 mg/kg, ip administered as single dose by hot plate test; type: functional
Intestine [21] = assay: Drug uptake in Sprague-Dawley rat intestine at 11 MBq, ip after 5 mins by gamma counting assay; type: ADME, organism-based; conditions: in vivo
Heart [22] = assay: Drug uptake in Sprague-Dawley rat heart at 11 MBq, ip after 10mins by gamma counting assay; type: ADME, organism-based; conditions: in vivo
Blood [23] = assay: Drug uptake in Sprague-Dawley rat blood at 11 MBq, ip after 10mins by gamma counting assay; type: ADME, organism-based; conditions: in vivo
Thyroid gland [24] = assay: Drug uptake in Sprague-Dawley rat thyroid at 11 MBq, ip after 10mins by gamma counting assay; type: ADME, organism-based; conditions: in vivo
Lung [25] = assay: Drug uptake in Sprague-Dawley rat lung at 11 MBq, ip after 5 mins by gamma counting assay; type: ADME, organism-based; conditions: in vivo
[26] = Octanol-PBS partition coefficient, log P of the compound at pH 7.4 by shake flask method; type: physicochemical
[27] = Permeability across apical to basolateral side of mouse bEND.3 cells at 37 kBq/200 uL after 10 hrs by transwell assay relative to control; type: ADME
Stomach [28] = assay: Drug uptake in Sprague-Dawley rat stomach at 11 MBq, ip after 5 mins by gamma counting assay; type: ADME, organism-based; conditions: in vivo
[29] = Stability of compound in saline at 11 kBq/uL up to 1 week at 4 degC by HPLC analysis; type: physicochemical; conditions: buffer, 168 h
Brain [30] = assay: Drug uptake in Sprague-Dawley rat brain at 11 MBq, ip after 10mins by gamma counting assay; type: ADME, organism-based; conditions: in vivo
Stomach [31] = assay: Drug uptake in Sprague-Dawley rat stomach at 11 MBq, ip after 10mins by gamma counting assay; type: ADME, organism-based; conditions: in vivo
Rattus norvegicus [32] = assay: Analgesic activity in Wistar Han rat assessed as time required to show maximal effect at 56.47 mg/kg, ip administered as single dose by hot plate test; type: functional
Rattus norvegicus [33] = assay: Analgesic activity in Wistar Han rat assessed as time required to show maximal effect at 5 mg/kg, ip by hot plate test; type: functional

Drug uptake (Spleen [1]): 0.33 % ID/g
remaining at 5 min [2]: 72.5%
Drug uptake (Intestine [3]): 1.06 % ID/g
Drug uptake (Muscle tissue [4]): 0.28 % ID/g
Drug uptake (Kidney [5]): 0.57 % ID/g
Drug uptake (Kidney [6]): 0.5 % ID/g
Drug uptake (Liver [7]): 0.88 % ID/g
Stability (Liver [8]): Unstable
Drug uptake (Blood [9]): 0.5 % ID/g
Drug uptake (Femur [10]): 0.27 % ID/g
Stability (Kidney [11]): Unstable
Drug uptake (Muscle tissue [12]): 0.26 % ID/g
Drug uptake (Lung [13]): 0.35 % ID/g
Drug uptake (Thyroid gland [14]): 2.7 % ID/g
Drug uptake (Liver [15]): 0.9 % ID/g
Drug uptake (Brain [16]): 0.03 % ID/g
Drug uptake (Heart [17]): 0.26 % ID/g
Drug uptake (Spleen [18]): 1.1 % ID/g
Drug uptake (Femur [19]): 0.22 % ID/g
Drug uptake (Intestine [21]): 1.6 % ID/g
Drug uptake (Heart [22]): 0.32 % ID/g
Drug uptake (Blood [23]): 0.68 % ID/g
Drug uptake (Thyroid gland [24]): 0.7 % ID/g
Drug uptake (Lung [25]): 0.5 % ID/g
logD [26]: -1.8
fold change (FC) [27]: 0.49
Drug uptake (Stomach [28]): 0.48 % ID/g
Stability [29]: Stable
Drug uptake (Brain [30]): 0.07 % ID/g
Drug uptake (Stomach [31]): 0.98 % ID/g
Compound: N=C(N)NCCC[C@H](NC(=O)[C@@H](N)Cc1ccc(O)c([125I])c1)C(N)=O
Time (Rattus norvegicus [20]): 30 min

Compound: N=C(N)NCCC[C@H](NC(=O)[C@@H](N)Cc1cc([125I])c(O)c([125I])c1)C(N)=O
Time (Rattus norvegicus [32]): 30 min

Compound: N=C(N)NCCC[C@H](NC(=O)[C@@H](N)Cc1ccc(O)cc1)C(N)=O
Time (Rattus norvegicus [33]): 15 min
